For experiment [1], the target named is T1, AldDH (acylating aldehyde dehydrogenase, PduP) (Rhodopseudomonas palustris, UniProt Q21A49).
T1 construct: gene RPC_1174; N-terminal encapsulation peptide kept
Nature of the experiment: X-ray crystal structure, […] Å. Type of experiment: binding. To be noted: active site, acylated enzyme (Cys330 S-propionylated from propionyl-CoA); crystals at pH 8.1.

In experiment [2] the target is T1, AldDH (acylating aldehyde dehydrogenase, PduP). Nature of the experiment: X-ray crystal structure, […] Å. The experiment is classed as binding. To be noted: active site; propionyl-CoA or CoA fitted; pH 4.8; also in one site of 5JFN, where Cys330 is S-propionylated (covalent).
For experiment [3] the target is unchanged. The experiment can be described thus: NAD+ reduction monitored at […] nm. The experiment is classed as biochemical. To be noted: 5 mM NAD+, 0.5 mM CoA, 200 mM MOPS/KOH pH 7.5; kcat per tetrameric enzyme; read-out: apparent KM.
For experiment [4], the target named is acylating aldehyde dehydrogenase (AldDH) from Rhodopseudomonas palustris BisB18, Strep-tagged (Rhodopseudomonas palustris BisB18). The experiment can be described thus: SEC; gel filtration on HiLoad 16/600 Superdex 200 pg, 20 mM MOPS/KOH pH 7.5, 50 mM KCl. (In general: In gel filtration, larger molecules generally elute earlier.)
Experiment [5] has the same target. The experiment can be described thus: crystal structure; AldDH co-crystallised with propionyl-CoA at pH 4.8, space group P 1, 2.5 Å.
Experiment [6] shares this target. The experiment can be described thus: crystal structure; AldDH co-crystallised with NAD+ at pH 4.8, space group P2_(1), 2.3 Å, twinned.
Experiment [7] shares this target. Nature of the experiment: crystal structure; AldDH co-crystallised with propionyl-CoA at pH 8.1, space group P 2_(1), 1.9 Å; CoA and S-propionylcysteine in the active sites.
The target in experiment [8] is T1, AldDH (acylating aldehyde dehydrogenase, PduP). Nature of the experiment: X-ray crystal structure, […] Å. The experiment is classed as binding. As to conditions: active site; pH 4.8, 5 mM NAD+.

Five molecules from paper PMC5311937, “In Vitro Characterization and Concerted Function of Three Core Enzymes of a Glycyl Radical Enzyme - Associated Bacterial Microcompartment” (Scientific Reports, 2017) can be followed below.

For orientation: Km means the substrate concentration at which the rate is half of its maximum. The stoichiometry N is the number of molecules, sites or subunits per partner or assembly.

T1 sequence (Q21A49 entry or part of it): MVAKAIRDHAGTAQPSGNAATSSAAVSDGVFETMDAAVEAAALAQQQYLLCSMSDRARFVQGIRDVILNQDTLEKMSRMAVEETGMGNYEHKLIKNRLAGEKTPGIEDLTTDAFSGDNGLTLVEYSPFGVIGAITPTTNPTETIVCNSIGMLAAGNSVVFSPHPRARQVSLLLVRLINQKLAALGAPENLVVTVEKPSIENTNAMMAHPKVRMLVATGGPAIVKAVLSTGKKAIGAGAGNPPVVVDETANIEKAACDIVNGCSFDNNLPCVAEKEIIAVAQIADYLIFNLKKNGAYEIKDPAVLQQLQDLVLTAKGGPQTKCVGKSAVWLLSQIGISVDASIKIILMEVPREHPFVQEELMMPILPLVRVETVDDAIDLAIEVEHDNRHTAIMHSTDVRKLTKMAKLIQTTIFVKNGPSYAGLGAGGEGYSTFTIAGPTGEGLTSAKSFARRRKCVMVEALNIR

With `CC(C)(COP(=O)(O)OP(=O)(O)OC[C@H]1O[C@@H](n2cnc3c(N)ncnc32)[C@H](O)[C@@H]1OP(=O)(O)O)[C@@H](O)C(=O)NCCC(=O)NCCS` [CoA], the “X-ray crystal structure, 1.90 Å” value in experiment [1] is on record as “In three of the four active sites of the tetramer we also found coenzyme A bound”.
Consider `CCC(=O)SCCNC(=O)CCNC(=O)[C@H](O)C(C)(C)COP(=O)(O)OP(=O)(O)OC[C@H]1O[C@@H](n2cnc3c(N)ncnc32)[C@H](O)[C@@H]1OP(=O)(O)O` [propionyl-CoA], for which, in experiment [2], the “X-ray crystal structure, 2.52 Å” value is “we found electron density that allowed the fitting of either propionyl-CoA or CoA”.
`CCC=O` [propionaldehyde]: the Km in experiment [3] amounted to 1200 ± 170 µM.
Take “acylating aldehyde dehydrogenase (AldDH) from Rhodopseudomonas palustris BisB18, Strep-tagged (enzyme)”: the stoichiometry N in experiment [4], in experiment [5], in experiment [6] and in experiment [7] was 4 throughout.
Consider `NC(=O)c1ccc[n+]([C@@H]2O[C@H](COP(=O)(O)OP(=O)(O)OC[C@H]3O[C@@H](n4cnc5c(N)ncnc54)[C@H](O)[C@@H]3O)[C@@H](O)[C@H]2O)c1` [NAD^+], for which the “X-ray crystal structure, 2.30 Å” value in experiment [8] was “Electron density in the active sites allowed the fitting of NAD^+”.
